Source: PubChem BioAssay AID328 (DTP/NCI, 2004)
“And” between values parts separate entries of the source, which are not always exact repeats. Equal entries are not always repeated. Toxic doses and inconclusive results are not listed. Residues, ends and D or L forms follow the SMILES beside them. *: point of attachment. Boc = CC(C)(C)OC(=O)*; OBn = c1ccc(CO*)cc1

Tested on: BDF1 mice, P388 leukemia ip, median survival T/C
Assay: NCI In Vivo Anticancer Drug Screen. Data for tumor model P388 Leukemia (intraperitoneal) in B6D2F1 (BDF1) mice
Conditions: endpoint: median survival time, higher = longer survival
Summary of the method: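 In tumour-bearing mice, survival after compound treatment is set against the vehicle group and given as a quotient.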

[1] = dose: 100.0 mg/kg/injection, schedule: Q01DX009 (ip), vehicle: saline with Tween-80
[2] = dose: 100.0 mg/kg/injection, schedule: Q04DX003 (ip), vehicle: saline with Tween-80
[3] = dose: 200.0 mg/kg/injection, schedule: Q01DX009 (ip), vehicle: saline with Tween-80
[4] = dose: 200.0 mg/kg/injection, schedule: Q04DX003 (ip), vehicle: saline with Tween-80
[5] = dose: 400.0 mg/kg/injection, schedule: Q01DX009 (ip), vehicle: saline with Tween-80
[6] = dose: 400.0 mg/kg/injection, schedule: Q04DX003 (ip), vehicle: saline with Tween-80
[7] = dose: 25.0 mg/kg/injection, schedule: Q01DX009 (ip), vehicle: Klucel (hydroxypropylcellulose) (HPC)
[8] = dose: 50.0 mg/kg/injection, schedule: Q01DX009 (ip), vehicle: Klucel (hydroxypropylcellulose) (HPC)
[9] = dose: 100.0 mg/kg/injection, schedule: Q01DX009 (ip), vehicle: Klucel (hydroxypropylcellulose) (HPC)
[10] = dose: 100.0 mg/kg/injection, schedule: Q04DX003 (ip), vehicle: Klucel (hydroxypropylcellulose) (HPC)
[11] = dose: 50.0 mg/kg/injection, schedule: Q04DX003 (ip), vehicle: saline with Tween-80
[12] = dose: 25.0 mg/kg/injection, schedule: Q01DX009 (ip), vehicle: saline with Tween-80
[13] = dose: 50.0 mg/kg/injection, schedule: Q01DX009 (ip), vehicle: saline with Tween-80
[14] = dose: 200.0 mg/kg/injection, schedule: Q01DX009 (ip), vehicle: Klucel (hydroxypropylcellulose) (HPC)
[15] = dose: 200.0 mg/kg/injection, schedule: Q04DX003 (ip), vehicle: Klucel (hydroxypropylcellulose) (HPC)
[16] = dose: 400.0 mg/kg/injection, schedule: Q04DX003 (ip), vehicle: Klucel (hydroxypropylcellulose) (HPC)

COc1cccc(OC)c1-c1oc2ccccc2c(=O)c1O
T/C [1]: 107 % of control | T/C [2]: 104 % of control | T/C [3]: 100 % of control | T/C [4]: 109 % of control | T/C [5]: 100 % of control | T/C [6]: 100 % of control

COc1ccc(NC2=CC(C)(C(=O)O)OC2=O)cc1 (centres undefined)
T/C [1]: 100 % of control | T/C [2]: 100 % of control | T/C [3]: 91 % of control | T/C [4]: 110 % of control | T/C [5]: 108 % of control | T/C [6]: 115 % of control

CC(=O)c1ccccc1OCC(O)CN1CCN(c2ccccc2Cl)CC1 (centres undefined)
T/C (dose: 37.5 mg/kg/injection, schedule: Q04DX003 (ip), vehicle: saline with Tween-80): 100 % of control | T/C (dose: 75.0 mg/kg/injection, schedule: Q04DX003 (ip), vehicle: saline with Tween-80): 109 % of control | T/C (dose: 150.0 mg/kg/injection, schedule: Q04DX003 (ip), vehicle: saline with Tween-80): 90 % of control

CP(C)c1ccccc1
T/C [7]: 92 % of control | T/C [8]: 96 % of control | T/C (dose: 50.0 mg/kg/injection, schedule: Q04DX003 (ip), vehicle: Klucel (hydroxypropylcellulose) (HPC)): 100 % of control | T/C [9]: 103 % of control | T/C [10]: 123 % of control

O=c1oc(-c2ccccc2)nc2c(Cl)ccc(Cl)c12
T/C (dose: 100.0 mg/kg/injection, schedule: Q04DX003 (ip), vehicle: saline): 109 % of control | T/C (dose: 200.0 mg/kg/injection, schedule: Q04DX003 (ip), vehicle: saline): 104 % of control | T/C (dose: 400.0 mg/kg/injection, schedule: Q04DX003 (ip), vehicle: saline): 104 % of control

CC(=O)NN(c1ccc([N+](=O)[O-])cc1)c1ccc([N+](=O)[O-])cc1
T/C [7]: 109 % of control | T/C [8]: 109 % of control | T/C [9]: 100 % of control

O=c1cc(Cl)[nH]c(=O)[nH]1
T/C [11]: 97 % of control | T/C [2]: 114 % of control | T/C [4]: 97 % of control | T/C [6]: 97 % of control

O=C1c2ccccc2C(=O)c2c(NCCNCCNCCO)ccc(NCCNCCNCCO)c21
T/C (dose: 25.0 mg/kg/injection, schedule: Q01DX009 (ip), vehicle: water): 100 % of control | T/C (dose: 50.0 mg/kg/injection, schedule: Q01DX009 (ip), vehicle: water): 113 % of control | T/C (dose: 100.0 mg/kg/injection, schedule: Q01DX009 (ip), vehicle: water): 115 % of control

CC(C)(C)OC(=O)NCC(=O)NCC(=O)NCC(=O)OCc1ccccc1 (Boc-Gly-Gly-Gly-OBn)
T/C (dose: 50.0 mg/kg/injection, schedule: Q01DX005 (ip), vehicle: saline with Tween-80): 95 % of control | T/C (dose: 100.0 mg/kg/injection, schedule: Q01DX005 (ip), vehicle: saline with Tween-80): 98 % of control

Cc1ccc(N=C=O)cc1[N+](=O)[O-]
T/C (dose: 25.0 mg/kg/injection, schedule: Q01DX009 (ip), vehicle: gum acacia): 100 % of control | T/C (dose: 50.0 mg/kg/injection, schedule: Q01DX009 (ip), vehicle: gum acacia): 100 % of control | T/C (dose: 100.0 mg/kg/injection, schedule: Q04DX003 (ip), vehicle: gum acacia): 91 % of control | T/C (dose: 200.0 mg/kg/injection, schedule: Q04DX003 (ip), vehicle: gum acacia): 95 % of control | T/C (dose: 400.0 mg/kg/injection, schedule: Q04DX003 (ip), vehicle: gum acacia): 95 % of control

CCOC(=O)Cc1c[nH]c2ccc(N(CCCl)CCCl)cc12
T/C (dose: 0.11 mg/kg/injection, schedule: Q04DX003 (ip), vehicle: Klucel (hydroxypropylcellulose) (HPC)): 116 % of control | T/C (dose: 0.17 mg/kg/injection, schedule: Q04DX003 (ip), vehicle: Klucel (hydroxypropylcellulose) (HPC)): 120 % of control | T/C (dose: 0.26 mg/kg/injection, schedule: Q04DX003 (ip), vehicle: Klucel (hydroxypropylcellulose) (HPC)): 100 % of control | T/C (dose: 0.5 mg/kg/injection, schedule: Q01DX009 (ip), vehicle: Klucel (hydroxypropylcellulose) (HPC)): 154 % of control | T/C (dose: 0.8 mg/kg/injection, schedule: Q01DX009 (ip), vehicle: Klucel (hydroxypropylcellulose) (HPC)): 175 % of control | T/C (dose: 0.9 mg/kg/injection, schedule: Q04DX003 (ip), vehicle: Klucel (hydroxypropylcellulose) (HPC)): 154 % of control | T/C (dose: 1.3 mg/kg/injection, schedule: Q01DX009 (ip), vehicle: Klucel (hydroxypropylcellulose) (HPC)): 250 % of control | T/C (dose: 1.4 mg/kg/injection, schedule: Q04DX003 (ip), vehicle: Klucel (hydroxypropylcellulose) (HPC)): 163 % of control | T/C (dose: 2.0 mg/kg/injection, schedule: Q01DX009 (ip), vehicle: Klucel (hydroxypropylcellulose) (HPC)): 272 % of control | T/C (dose: 2.2 mg/kg/injection, schedule: Q04DX003 (ip), vehicle: Klucel (hydroxypropylcellulose) (HPC)): 204 % of control | T/C (dose: 3.0 mg/kg/injection, schedule: Q01DX009 (ip), vehicle: Klucel (hydroxypropylcellulose) (HPC)): 230 % of control and 272 % of control | T/C (dose: 3.3 mg/kg/injection, schedule: Q04DX003 (ip), vehicle: Klucel (hydroxypropylcellulose) (HPC)): 222 % of control | T/C (dose: 4.5 mg/kg/injection, schedule: Q01DX009 (ip), vehicle: Klucel (hydroxypropylcellulose) (HPC)): 154 % of control | T/C (dose: 5.0 mg/kg/injection, schedule: Q04DX003 (ip), vehicle: Klucel (hydroxypropylcellulose) (HPC)): 245 % of control and 272 % of control | T/C (dose: 6.0 mg/kg/injection, schedule: Q01DX009 (ip), vehicle: Klucel (hydroxypropylcellulose) (HPC)): 107 % of control | T/C (dose: 7.5 mg/kg/injection, schedule: Q04DX003 (ip), vehicle: Klucel (hydroxypropylcellulose) (HPC)): 240 % of control | T/C (dose: 8.0 mg/kg/injection, schedule: Q04DX003 (ip), vehicle: Klucel (hydroxypropylcellulose) (HPC)): 272 % of control | T/C (dose: 12.5 mg/kg/injection, schedule: Q04DX003 (ip), vehicle: Klucel (hydroxypropylcellulose) (HPC)): 272 % of control

CCOC(=O)c1cc2ccccc2oc1=O
T/C [12]: 95 % of control | T/C (dose: 25.0 mg/kg/injection, schedule: Q04DX003 (ip), vehicle: saline with Tween-80): 115 % of control | T/C [13]: 100 % of control | T/C [11]: 105 % of control | T/C [2]: 105 % of control

CC12CCC(C1)C(C)(C)C2NCCCN1C(=O)c2ccc3c4c(ccc(c24)C1=O)C(=O)N(CCCNC1C2(C)CCC(C2)C1(C)C)C3=O (centres undefined)
T/C (dose: 6.25 mg/kg/injection, schedule: Q01DX009 (ip), vehicle: Klucel (hydroxypropylcellulose) (HPC)): 105 % of control | T/C (dose: 12.5 mg/kg/injection, schedule: Q01DX009 (ip), vehicle: Klucel (hydroxypropylcellulose) (HPC)): 100 % of control | T/C [7]: 115 % of control and 116 % of control

Cc1ccccc1C1(c2ccccc2C)OC(=O)c2ccccc21
T/C [9]: 90 % of control | T/C [10]: 95 % of control | T/C [14]: 104 % of control | T/C [15]: 91 % of control | T/C (dose: 400.0 mg/kg/injection, schedule: Q01DX009 (ip), vehicle: Klucel (hydroxypropylcellulose) (HPC)): 90 % of control | T/C [16]: 87 % of control

CC12CCCCC1=Nc1ccc3ccccc3c12 (centres undefined)
T/C (dose: 100.0 mg/kg/injection, schedule: Q01DX009 (ip), vehicle: saline + alcohol): 93 % of control

CC(C)COC(=O)c1cc(O)c(O)c(O)c1
T/C [12]: 95 % of control | T/C [13]: 91 % of control | T/C [1]: 112 % of control | T/C [2]: 105 % of control | T/C [3]: 103 % of control | T/C [4]: 115 % of control | T/C [5]: 103 % of control | T/C [6]: 115 % of control

C1CC2C(CCCC23OCCO3)C2(C1)OCCO2 (centres undefined)
T/C [8]: 113 % of control | T/C [9]: 86 % of control | T/C (dose: 100.0 mg/kg/injection, schedule: Q04DX003 (ip), vehicle: other): 100 % of control | T/C [14]: 95 % of control | T/C (dose: 200.0 mg/kg/injection, schedule: Q04DX003 (ip), vehicle: other): 95 % of control | T/C (dose: 400.0 mg/kg/injection, schedule: Q04DX003 (ip), vehicle: other): 100 % of control

Cc1ccc(NCCN2CCCCC2)c2c(=O)c3ccccc3sc12
T/C [9]: 115 % of control | T/C [10]: 115 % of control | T/C [14]: 110 % of control | T/C [15]: 115 % of control | T/C (dose: 264.0 mg/kg/injection, schedule: Q01DX009 (ip), vehicle: Klucel (hydroxypropylcellulose) (HPC)): 150 % of control | T/C (dose: 264.0 mg/kg/injection, schedule: Q04DX003 (ip), vehicle: Klucel (hydroxypropylcellulose) (HPC)): 118 % of control and 120 % of control | T/C [16]: 122 % of control
